From patent US20210109080A1, “Cell-Based Biosensor for Early Alzheimer's Disease Detection” (University of South Carolina, priority 2019, published 2021)
Where a SMILES comes first, the peptide text is derived from it. The star is where a group is joined. Cbz = O=C(OCc1ccccc1)*

Test system: HBMVEC monolayers
Assay: FITC-BSA transendothelial transfer / permeability coefficient (Pe) across HBMVEC monolayers
Assay type: cell-based, human
Conditions: 3 μM MG-132 pre-treatment 30 min, then 5 μM MIX 24 h
Procedure: HBMVEC monolayers were incubated alone (white circles), with 0.3-10 μM Aß aggregates (grey circles), or with TNF-α (positive control, black circles). (a) Following 24-h treatment, transfer of FITC-BSA from the apical to basolateral chamber was monitored via florescence. Error bars represent SEM, n=3. Increased permeability is evidenced by a faster transfer rate, or steeper slope. Following treatment with 5 μM Aß aggregates, the transfer rate is increased by approximately 10%. (b) TEER was monitored following addition of treatments (indicated by arrow). […] In the absence of Aß aggregates, TEER maintains a plateau, decreasing by less than 8% over 7 days.
HBMVEC monolayers were incubated alone (CONT, white circles), with Aß monomer (MON, diamonds), with Aß aggregate mixture containing small aggregates (MIX, circles), or with Aß fibrils (FIB, triangles). (a) Using FITC-BSA transfer rates, Pe was determined after 24-h treatment with Aß concentrations of 5 μM (white bars) and 10 μM (black bars). […] (b) TEER was monitored following addition of treatments at a concentration of 5 μM (indicated by arrow).
Pe is determined from the transfer rate of FITC-BSA and reported relative to untreated monolayers. […]
(a) Confluent HBMVEC monolayers were incubated for 30 min with 100 pM, 1 nM, 10 nM, or 1 μM isolated small soluble Aß aggregates (SOL) (RH=43-54 nm). […] Using FITC-BSA transfer rates, Pe was determined.

CC(C)C[C@@H](C=O)NC(=O)[C@H](CC(C)C)NC(=O)[C@H](CC(C)C)NC(=O)OCc1ccccc1 [MG-132] (Cbz-Leu-Leu-Leu-aldehyde)
effect on Aß-induced increase in Pe: Abrogation of the Aß-induced increase in Pe
